Several values for one entry are separate records, joined by “and”; a condition that tells them apart may be missing. Equal values may be shown once. Read-outs that look alike come from different tables or passages of the source. Starred links: 1 amine or outer side, 2 acyl side, 3 side chain; linkers in the order of their positions; H or OH if unused. Positions of bridges follow the written chain, without caps; N, C: chain ends. Non-standard residues stand in square brackets, D forms with d. Residues, ends and D or L forms follow the SMILES beside them. Chains are numbered I, II in the order given. X1 = O=C(/C(=C/c1ccccc1)N[*:1])[*:2]
Key:
[1] = tested on: P. falciparum INDO (CQ-resistant); test: microbe, parasite or virus in culture; assay type: cell-based; details: Plasmodium falciparum; ring stage synchronized, 48 hr, SYBR Green I fluorescence, medium with 10% human serum; ± SD of three independent observations
Protocol: Chloroquine-sensitive (3D7) and CQ-resistant (Dd2 and INDO) strains of P. falciparum were maintained in continuous culture according to the method of Trager and Jensen with minor modifications. Cultures were maintained in fresh group O^+ve human erythrocytes suspended at 4% haematocrit in complete medium {16.2 g/L RPMI 1640 containing 25 mM HEPES, 11.11 mM glucose (Gibco), 0.2% sodium bicarbonate (Sigma), 0.5% Albumax I (Gibco), 45 μg/litre hypoxanthine (Sigma) and 50 μg/litre gentamicin (Gibco)} and incubated at 37°C under a gas mixture 5% O2, 5% CO2, and 90% N2. Every day, the spent medium was replaced by fresh complete medium to propagate the culture. […] Parasitaemia was monitored by microscopic examination of Giemsa-stained blood smears. […]
For drug screening, SYBR green I based fluorescence assay was used as described previously by Smilkstein et al.[30]. […] Fluorescence was measured with a Victor fluorescence multi-well plate reader (Perkin Elmer) with excitation and emission wavelength centred at 485 and 530 nm, respectively. Fluorescence counts for CQ (0.1 μM for 3D7, 1 μM for INDO) were subtracted from counts in each well. […] Results of the above mentioned fluorescence-based assay were validated microscopically by examination of Giemsa-stained smears of peptide-treated parasite cultures. Statistical significance of relative potencies of peptides was determined by student’s T test.

[2] = tested on: P. falciparum Dd2 (CQ-resistant); test: microbe, parasite or virus in culture; assay type: cell-based, Plasmodium falciparum; details: for Resistance index IC50 Dd2/ IC50 3D7: IC50 CQ resistant strain/ IC50 CQ sensitive strain
Protocol: (§1) Chloroquine-sensitive (3D7) and CQ-resistant (Dd2 and INDO) strains of P. falciparum were maintained in continuous culture according to the method of Trager and Jensen with minor modifications. Cultures were maintained in fresh group O^+ve human erythrocytes suspended at 4% haematocrit in complete medium {16.2 g/L RPMI 1640 containing 25 mM HEPES, 11.11 mM glucose (Gibco), 0.2% sodium bicarbonate (Sigma), 0.5% Albumax I (Gibco), 45 μg/litre hypoxanthine (Sigma) and 50 μg/litre gentamicin (Gibco)} and incubated at 37°C under a gas mixture 5% O2, 5% CO2, and 90% N2. Every day, the spent medium was replaced by fresh complete medium to propagate the culture. […] Parasitaemia was monitored by microscopic examination of Giemsa-stained blood smears. Synchronized ring stage parasite was obtained by 5% sorbitol treatment. Trophozoites and schizont-stage parasites were enriched by using Percoll gradient.
(§2) Stock solutions of peptides and CQ were prepared in water (milli-Q grade) while artemisinin stock solution was in dimethyl sulphoxide (DMSO). All stocks were then diluted with culture medium to achieve the required drug concentrations. The concentration of peptide solution in water was based on A280 [ϵ (M^-1 cm^-1) ΔF (didehydrophenylalanine) 19,000, W (Tryptophan) 5,000)]. Thus ϵ280 were 62,000, 124,000, 124,000 and 248,000 for ΔFm, (ΔFm)2, ΔFd and ΔFq respectively. The concentration of FITC-peptides was based on A495 [ϵ(M^-1 cm^-1) FITC 77,000 for (ΔFm)2 with one FITC and 154,000 for ΔFd with two FITC per molecule]. Drugs and peptides solutions were placed in 96-well flat bottom tissue culture grade plates (Corning).
(§3) For drug screening, SYBR green I based fluorescence assay was used as described previously by Smilkstein et al.[30]. Sorbitol synchronized ring stage parasites (haematocrit: 2%, parasitaemia: 1%, 100 μl) under normal culture conditions were incubated in the absence or presence of increasing concentrations of peptides in water. CQ and artemisinin were used as positive controls. […] After 48 hr of incubation 100 μl of SYBR Green I buffer [0.2 μl of 10,000 X SYBR Green I (Invitrogen) per ml of lysis buffer {Tris (20 mM; pH 7.5), EDTA (5 mM), saponin (0.008%; wt/vol), and Triton X-100 (0.08%; vol/vol)}] was added to each well, mixed twice gently with multi-channel pipette and incubated in dark at 37 °C for 1 h. Fluorescence was measured with a Victor fluorescence multi-well plate reader (Perkin Elmer) with excitation and emission wavelength centred at 485 and 530 nm, respectively. Fluorescence counts for CQ (0.1 μM for 3D7, 1 μM for INDO) were subtracted from counts in each well. The fluorescence counts were plotted against the drug concentration and IC50 (the 50% inhibitory concentration) was determined by analysis of dose–response curves. Results of the above mentioned fluorescence-based assay were validated microscopically by examination of Giemsa-stained smears of peptide-treated parasite cultures. Statistical significance of relative potencies of peptides was determined by student’s T test.

[3] = tested on: P. falciparum 3D7 (chloroquine-sensitive); test: microbe, parasite or virus in culture; assay type: cell-based, Plasmodium falciparum
Protocol: as §1, §2, §3

proteases = details: branched dimer compared with linear dimer (ΔFm)2; cited from earlier work
Source text: Some important features of these peptides as drugs against malaria include their favourable resistance indices (Table 1) that allow them to rapidly kill both drug-sensitive and drug-resistant strains of malaria parasite with equal potencies, their amphipathic nature that gives them drug-like character, and their ability to permeabilize and penetrate biological membranes, which allows them to attack target cells both from the surface as well as intracellularly. In addition, the presence of the conformationally constrained, non-protein, amino acid didehydrophenylalanine in both ΔFd and (ΔFm)2 pr ...

[4] = tested on: infected erythrocytes (PRBC); test: Haemolysis assay, parasitized red cells; assay type: cell-based, Plasmodium falciparum; details: 3 h
Protocol: (§4) Selectivity of haemolysis by peptides for infected erythrocytes (PRBC) vs uninfected erythrocytes (URBC) was examined by incubating the test molecules with URBCs and PRBCs respectively in phosphate-buffered saline (PBS). Briefly, fresh RBCs were spin washed (1600 RPM; 5 min) three times in PBS and re-suspended in PBS at 2% haematocrit. A 100 μl suspension was added to 96-well plate containing the peptides at different concentrations. […] After incubation at 37°C for 3 hr, the samples were centrifuged and supernatant was used to determine the haemolytic activity measured in terms of haemoglobin release as monitored by […]. Triton-treated control samples were diluted 10-fold before reading absorbance. […] Percent haemolysis has been expressed with reference to 100% haemolysis value assigned to positive control (triton X 100 treated RBCs). To study haemolytic susceptibility of parasitized cells, URBCs were replaced with varying percentages (10% and 20%) of mixed stage parasitized cells. […] Haemolysis of parasitized erythrocytes was also monitored microscopically by examining the Giemsa-stained smears. Parasitaemia of ΔFd treated and untreated cultures were microscopically counted for ring, trophozoite and schizont stages respectively. Susceptibility of different stages was compared with corresponding untreated control cultures.

[5] = tested on: P. falciparum 3D7 (chloroquine-sensitive); test: microbe, parasite or virus in culture; assay type: cell-based, Plasmodium falciparum; remark: listed apart in the source
[6] = tested on: uninfected erythrocytes (URBC); test: Haemolysis assay, uninfected red cells; assay type: cell-based, human; details: 3 h
Protocol: as §4

[7] = tested on: P. falciparum 3D7 trophozoites; test: Immunofluorescence staining of MSP3 in ΔFd treated trophozoite cultures; assay type: cell-based, Plasmodium falciparum; details: ΔFd 2.5 μM, 37°C, 6 hr; three independent observations
Protocol: Immunohistochemical Fluorescence staining of MSP3 in ∆Fd treated Trophozoite and Schizont cultures.
To probe mechanistic details of ∆Fd-mediated, premature parasite egress, P. falciparum 3D7 culture (2%
parasitaemia, 2% haematocrit) was incubated without (control) or with ∆Fd (2.5 µM) at 37°C for 6 hr in a final
volume of 100 µl made with RPMI (96 µl RPMI + 4 µl peptide solution). Smears were processed as follows: (a)
flooded with 2% BSA/PBS (1 hr, 37°C), (b) PBS washed and (c) flooded (1 hr, 370C) with polyclonal anti-MSP3
antibody produced in mouse (1: 100 dilution in 1% BSA/PBS), (d) PBS washed and (e) flooded with alexa fluor 488
labelled anti-mouse antibody (Sigma) (1: 500 dilution in 1% BSA/PBS, 1 hr, 370C in dark), (e) PBS washed and (f)
flooded with DAPI (4, 6-diamidino-2-phenylindole) (invitrogen) (500 ng/ml, 10 min, 370 C). After a final PBS wash
the smears were observed under Nikon eclipse fluorescence microscope using appropriate filters.

HeLa cells = assay type: cell-based; details: 48 h
Protocol: The cytotoxic effects of ΔFd on mammalian cells was assessed by functional assay as described using HeLa cells cultured in RPMI containing 10% fetal bovine serum, 0.21% sodium bicarbonate (Sigma) and 50 μg/mL gentamycin (complete medium). Briefly, cells (10^4 cells/200 μl/well) were seeded into 96-well flat-bottom tissue culture plates in complete medium. […] DMSO (as positive inhibitor) was added at 10%. Twenty microlitres of a stock solution of MTT (5 mg/mL in 1X phosphate buffered saline) was added to each well, gently mixed and incubated for another 4 hr. After spinning the plate at 1500 rpm for 5 min, supernatant was removed and 100 μl of DMSO (stop agent) was added. Formation of formazon was read on a microtiter plate reader (Versa max tunable multi-well plate reader) at 570 nm. The 50% cytotoxic concentration (TC50) of drug was determined by analysis of dose–response curves.

| Structure (SMILES) | IC50 [1] [nM] | Resistance index IC50 Dd2/ IC50 3D7 [2] | IC50 ([2]; Plasmodium falciparum, DD2, ring stage synchronized, haematocrit 2%, parasitaemia 1%, 48 hr, SYBR Green I fluorescence, ± SD of three independent observations, read-out: IC50 P. falciparum Dd2) [nM] | IC50 ([3]; Plasmodium falciparum, 3D7, ring stage synchronized, haematocrit 2%, parasitaemia 1%, 48 hr, SYBR Green I fluorescence, ± SD of three independent observations, read-out: IC50 P. falciparum 3D7) [nM] | stability against proteases (proteases) | percentage haemolysis, mixed culture 10% parasitaemia [4] [%] | percentage haemolysis, mixed culture 20% parasitaemia [4] [%] | increment in potency at 96 hr (two cycles) vs 48 hr (one cycle) ([5]; P. falciparum 3D7, SYBR Green assay) [fold] | IC70 ([5]; P. falciparum 3D7, dose used on trophozoite and schizont cultures) [nM] | HC50 URBC [6] [µM] | Hemolytic Selectivity index (HC50 URBC/ IC50 Pf 3D7) [6] | anomalously egressed trophozoites with MSP3 staining [7] | IC50 ([2]; Dd2 (CQ-resistant, 48 h)) [nM] | IC50 ([3]; 3D7 (chloroquine-sensitive, 48 h)) [nM] | TC50 HeLa cells (HeLa cells) [nM] |
| --- | --- | --- | --- | --- | --- | --- | --- | --- | --- | --- | --- | --- | --- | --- | --- |
| C[C@@H]1CC[C@H]2[C@@H](C)C(=O)O[C@@H]3O[C@@]4(C)CC[C@@H]1[C@]32OO4 [Artemisinin, reference compound] | 15 | 1 | 16 | 15 |  |  |  |  |  |  |  |  |  |  |  |
| CC(=O)NCC(=O)N/C(=C\c1ccccc1)C(=O)N[C@@H](CCCNC(=N)N)C(=O)N[C@@H](CCCCN)C(=O)N/C(=C\c1ccccc1)C(=O)N[C@@H](Cc1c[nH]cn1)C(=O)N[C@@H](CCCCN)C(=O)N/C(=C\c1ccccc1)C(=O)N[C@@H](Cc1c[nH]c2ccccc12)C(=O)N[C@@H](C)C(=O)NCCCC[C@H](NC(=O)[C@H](C)NC(=O)[C@H](Cc1c[nH]c2ccccc12)NC(=O)/C(=C/c1ccccc1)NC(=O)[C@H](CCCCN)NC(=O)[C@H](Cc1c[nH]cn1)NC(=O)/C(=C/c1ccccc1)NC(=O)[C@H](CCCCN)NC(=O)[C@H](CCCNC(=N)N)NC(=O)/C(=C/c1ccccc1)NC(=O)CNC(C)=O)C(N)=O [ΔFd] (I: Ac-G[X1]RK[X1]HK[X1]WAK-NH2 / II: Ac-G[X1]RK[X1]HK[X1]WA; amide I:11-II:C; N-terminus and C-terminus assumed) |  | 1.1 and ~ 1 |  |  | more stable against proteases | 7 | 16 | 1.1 | 2500 | > 50 | > 35 | ~ 40% | 1600 ± 90 | 1390 ± 100 | > 25000 |

— article PMC3502156, “Anti-plasmodial action of de novo-designed, cationic, lysine-branched, amphipathic, helical peptides” (Malaria Journal, 2012)
